Measurements from patent US12637471B2, “Heterocyclic compounds, compositions, methods of preparation and uses thereof” (Organon R&D Finland Ltd, priority 2021, dated 2026).

Experiments:
Assay type in all cases: biochemical
[1] = target: T1, Recombinant human AKR1C3 (17β-HSD5) protein (Homo sapiens, UniProt P42330); assay: Inhibition of AKR1C3 (17β-hydroxysteroid dehydrogenase type 5) enzyme, fluorescence assay; conditions: inhibitor at 500 nM
T1 construct: made in house; host or cells: E. coli
T1 sequence (P42330 1-323): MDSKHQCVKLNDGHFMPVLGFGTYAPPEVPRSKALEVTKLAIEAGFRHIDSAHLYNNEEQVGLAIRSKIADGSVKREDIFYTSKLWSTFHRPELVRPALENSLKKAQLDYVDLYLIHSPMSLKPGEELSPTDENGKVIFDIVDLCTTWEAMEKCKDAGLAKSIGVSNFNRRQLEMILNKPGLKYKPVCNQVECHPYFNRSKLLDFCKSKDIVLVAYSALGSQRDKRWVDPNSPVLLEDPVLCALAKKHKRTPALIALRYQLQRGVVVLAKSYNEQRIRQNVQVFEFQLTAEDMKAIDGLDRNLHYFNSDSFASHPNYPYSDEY
Method: Inhibition of AKR1C3 (17β-Hydroxysteroid Dehydrogenase Type 5) Enzyme
Recombinant human AKR1C3 (17β-HSD5) protein (GenBank Accession No. NM_003739.6) produced in E. coli was used for screening. Recombinant protein (27 nM/1 μg/ml) was incubated in 20 mM KH2PO4, 1 mM EDTA, complete protease inhibitor cocktail, pH 7.4 with 1 μM 9-acetyl-2,3,6,7-tetrahydro-1H,5H,11H-pyrano[2,3-f]pyrido[3,2,1-ij]quinolin-11-one and 1 mM NADPH for 60 to 120 min at RT, in the presence of the potential inhibitor at 500 nM concentration. Inhibitor stock solutions were prepared in DMSO. Final concentration of DMSO was adjusted to 1% in all samples. The samples were analysed by fluorescent measurement with Tecan Spark microplate reader at wavelengths 420 nm for excitation and 510 nm for emission. Samples were evaluated against standards of 9-(1-hydroxyethyl)-2,3,6,7-tetrahydro-1H,5H,11H-pyrano[2,3-f]pyrido[3,2,1-ij]quinolin-11-one at concentrations 1 μM-10 nM. Background fluorescence was reduced from all the samples and standards. The concentrations of formed product were calculated from the standard curve with Tecan Spark Magellan software. The formed product concentrations were used to calculate conversion percentages. The inhibition percentages for the samples were calculated from the conversion percentages.
Inhibition percentages of samples were calculated using following formula: […]

[2] = target: T2, Recombinant human aldo-keto reductase family 1 member C2 (AKR1C2) protein (Homo sapiens, UniProt P52895); assay: Inhibition of the aldo-keto reductase family 1 member C2, 3H-dihydrotestosterone conversion; conditions: inhibitor at 10 μM
T2 construct: made in house; host or cells: Sf-9 insect cells (baculovirus)
T2 sequence (P52895 1-323): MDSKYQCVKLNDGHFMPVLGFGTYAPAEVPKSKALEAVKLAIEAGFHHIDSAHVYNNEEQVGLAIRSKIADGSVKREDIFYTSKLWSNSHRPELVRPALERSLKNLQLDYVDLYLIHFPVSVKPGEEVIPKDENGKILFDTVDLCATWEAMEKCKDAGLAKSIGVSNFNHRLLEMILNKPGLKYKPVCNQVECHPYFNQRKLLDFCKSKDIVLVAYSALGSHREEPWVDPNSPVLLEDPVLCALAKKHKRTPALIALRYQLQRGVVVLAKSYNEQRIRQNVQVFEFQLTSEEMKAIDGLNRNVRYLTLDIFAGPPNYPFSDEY
Method: Inhibition of the Aldo-Keto Reductase Family 1 Member C2
Recombinant human aldo-keto reductase family 1 member C2 (AKR1C2) protein (GenBank Accession No. NM_001354.6) produced in Sf-9 insect cells with baculovirus was used for screening. Recombinant protein (13.6 nM/0.5 μg/ml) was incubated in 20 mM KH2PO4 pH 7.4, 1 mM EDTA, complete protease inhibitor tablet, 1 mM NADPH with 6.25 nM ^3H-labelled dihydrotestosterone for 45 min at +37° C., in the presence of the potential inhibitor at 10 μM concentration. Inhibitor stock solutions were prepared in DMSO. Final concentration of DMSO was adjusted to 1% in all samples. The enzyme reaction was stopped by addition of 10% trichloroacetic acid (final concentration 1%). Samples were filtrated through […] filtration plate (Merck). Analyses of samples was done with Waters Acquity UPLC H-class equipped with XBridge C18 column and XBridge VanGuard C18 guard column. Acetonitrile: 0.1% formic acid in water (42/58 v/v) with flow of 1.2 ml/min was used for mobile phase. The eluent was mixed with scintillant and the radioactivity was monitored in the eluate by a Scintillation Analyser. The conversion percentage of triated substrate (dihydrotestosterone) to tritiated product (5α-androstane-3α,17β-diol) for each sample was determined by the relative percentages of substrate and product in the chromatogram. The inhibition percentages of samples were calculated using following formula: […]

[3] = target: T3, 17β-Hydroxysteroid Dehydrogenase Type 2 Enzyme (17β-HSD2) (Homo sapiens, UniProt P37059); assay: Inhibition of the 17β-hydroxysteroid dehydrogenase type 2 enzyme, 3H-testosterone conversion; conditions: inhibitor at 10 μM
T3 construct: made in house; host or cells: Sf-9 insect cells (baculovirus)
T3 sequence (P37059 1-387): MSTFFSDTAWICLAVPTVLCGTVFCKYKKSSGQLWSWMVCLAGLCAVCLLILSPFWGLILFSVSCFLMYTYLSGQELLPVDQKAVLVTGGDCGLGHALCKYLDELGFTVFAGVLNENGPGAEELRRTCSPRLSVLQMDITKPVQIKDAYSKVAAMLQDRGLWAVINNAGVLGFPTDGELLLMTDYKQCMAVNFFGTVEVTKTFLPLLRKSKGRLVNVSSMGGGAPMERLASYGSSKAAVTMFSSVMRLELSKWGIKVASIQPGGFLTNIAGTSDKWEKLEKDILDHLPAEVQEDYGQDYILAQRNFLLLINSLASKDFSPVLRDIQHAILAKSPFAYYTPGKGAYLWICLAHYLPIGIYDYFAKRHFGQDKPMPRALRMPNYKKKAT
Method: Inhibition of the 17β-Hydroxysteroid Dehydrogenase Type 2 Enzyme
Recombinant human 173-HSD2 protein (GenBank Accession No. NM_002153.3) produced in Sf-9 insect cells with baculovirus was used for screening.
Recombinant protein (105 nM/4.5 μg/ml) was incubated in 20 mM KH2PO4 pH 8.5, 1 mM EDTA, complete protease inhibitor cocktail, 1 mM NAD with 56.25 nM testosterone (including ^3H-labelled testosterone) for 30 min at RT, in the presence of the potential inhibitor at 10 μM concentration. Inhibitor stock solutions were prepared in DMSO. Final concentration of DMSO was adjusted to 1% in all samples. The enzyme reaction was stopped by addition of 10% trichloroacetic acid (final concentration 1%). Samples were filtrated through […] filtration plate. Analyses of samples was done with Waters Acquity UPLC H-class equipped with XBridge C18 column and XBridge VanGuard C18 guard column. Acetonitrile: 0.1% formic acid in water (42/58 v/v) with flow of 1.2 ml/min was used for mobile phase. The eluent was mixed with scintillant and the radioactivity was monitored in the eluate by a Scintillation Analyser. The conversion percentage of tritiated substrate (testosterone) to product tritiated (androstenedione) for each sample was determined by the relative percentages of substrate and product in the chromatogram. The inhibition percentages of samples were calculated using following formula: […]

Row | Structure (SMILES) | inhibition at 0.5 µM [1] [%] | inhibition at 10 µM [2] [%] | inhibition at 10 µM [3] [%]
1 | N#CC(=C1CCN(C(=O)N2CCc3[nH]ncc3C2)CC1)c1ccc(Cl)cc1 [Compound 113, 2-(4-chlorophenyl)-2-(1-(4,5,6,7-tetrahydro-1H-pyrazolo[4,3-c]pyridine-5-carbonyl)piperidin-4-ylidene)acetonitrile] | 104 | 19 | 16
2 | CC(C)OC1CCN(C(=O)N2CCC(=C(C#N)c3ccc(Cl)cc3)CC2)CC1 [Compound 133, 2-(4-chlorophenyl)-2-(1-(4-isopropoxypiperidine-1-carbonyl)piperidin-4-ylidene)acetonitrile] | 97 | 16 | 23
3 | N#CC(=C1CCN(C(=O)N2CCC(CO)CC2)CC1)c1ccc(Cl)cc1 [Compound 74, 2-(4-chlorophenyl)-2-(1-(4-(hydroxymethyl)piperidine-1-carbonyl)piperidin-4-ylidene)acetonitrile] | 98 | 9 | 17
4 | N#CC(=C1CCN(C(=O)N2CCC(O)CC2)CC1)c1n[nH]c2ccc(F)cc12 [Compound 94, 2-(5-fluoro-1H-indazol-3-yl)-2-(1-(4-hydroxypiperidine-1-carbonyl)piperidin-4-ylidene)acetonitrile] | 97 | 7 | 8
5 | N#CC(=C1CCN(C(=O)N2CCn3ncnc3C2)CC1)c1ccc(Cl)cc1 [Compound 164, 2-(4-chlorophenyl)-2-(1-(5,6,7,8-tetrahydro-[1,2,4]triazolo[1,5-a]pyrazine-7-carbonyl)piperidin-4-ylidene)acetonitrile] | 99 | 12 | 10
6 | N#CC(=C1CCN(C(=O)N2CCC(C(F)(F)F)CC2)CC1)c1cccc2[nH]ncc12 [Compound 145, 2-(1H-indazol-4-yl)-2-(1-(4-(trifluoromethyl)piperidine-1-carbonyl)piperidin-4-ylidene) acetonitrile] | 97 | 1 | 9
7 | N#CC(=C1CCN(C(=O)N2CCC(O)CC2)CC1)c1ccc(F)c(F)c1 [Compound 41, 2-(3,4-difluorophenyl)-2-(1-(4-hydroxypiperidine-1-carbonyl)piperidin-4-ylidene)acetonitrile] | 96 | 7 | 7
8 | N#CC(=C1CCN(C(=O)N2CCC(O)CC2)CC1)c1cccc2[nH]ncc12 [Compound 48, 2-(1-(4-hydroxypiperidine-1-carbonyl)piperidin-4-ylidene)-2-(1H-indazol-4-yl)acetonitrile] | 100 | 0 | 8
9 | N#CC(=C1CCN(C(=O)N2CCC(O)CC2)CC1)c1cccc(Cl)c1 [Compound 80, 2-(3-chlorophenyl)-2-(1-(4-hydroxypiperidine-1-carbonyl)piperidin-4-ylidene)acetonitrile] | 99 | 7 | 12
10 | N#CC(=C1CCN(C(=O)N2CCc3[nH]ncc3C2)CC1)c1ccc(F)c(F)c1 [Compound 43, 2-(3,4-difluorophenyl)-2-(1-(4,5,6,7-tetrahydro-1H-pyrazolo[4,3-c]pyridine-5-carbonyl)piperidin-4-ylidene)acetonitrile] | 103 | 29 | 21
11 | N#CC(=C1CCN(C(=O)N2CCOCC2)CC1)c1ccc(F)cc1 [Compound 1, 2-(4-fluorophenyl)-2-(1-(morpholine-4-carbonyl)piperidin-4-ylidene)acetonitrile] | 99 | 5 | 2
12 | N#CC(=C1CCN(C(=O)N2CCC(O)CC2)CC1)c1cccc2cn[nH]c12 [Compound 56, 2-(1-(4-hydroxypiperidine-1-carbonyl)piperidin-4-ylidene)-2-(1H-indazol-7-yl)acetonitrile] | 86 | -3 | 3
13 | N#CC(=C1CCN(C(=O)N2CCC(O)CC2)CC1)c1ccc(OC(F)(F)F)cc1 [Compound 115, 2-(1-(4-hydroxypiperidine-1-carbonyl)piperidin-4-ylidene)-2-(4-(trifluoromethoxy)phenyl)acetonitrile] | 96 | 0 | -1
14 | N#CC(=C1CCN(C(=O)N2CCc3sccc3C2)CC1)c1ccc(Cl)cc1 [Compound 47] | 103 | 9 | 20
15 | CCN(CC)C(=O)N1CCC(=C(C#N)c2ccc(C(F)(F)F)cc2)CC1 [Compound 171, 4-(cyano(4-(trifluoromethyl)phenyl)methylene)-N,N-diethylpiperidine-1-carboxamide] | 99 | 3 | 17
16 | COCC1CCN(C(=O)N2CCC(=C(C#N)c3cccc(Cl)c3)CC2)CC1 [Compound 153, 2-(3-chlorophenyl)-2-(1-(4-(methoxymethyl)piperidine-1-carbonyl)piperidin-4-ylidene)acetonitrile] | 95 | 14 | 26
17 | N#CC(=C1CCN(C(=O)N2C[C@@H]3CC[C@@H]2C3)CC1)c1ccc(F)c(F)c1 [Compound 34, 2-(1-((1R,4R)-2-azabicyclo[2.2.1]heptane-2-carbonyl)piperidin-4-ylidene)-2-(3,4-difluorophenyl)acetonitrile] | 95 | 12 | 21
